Tested on: bovine serum albumin (BSA) antigen
Experiment: Immunization, humoral response by ELISA
Assay type: in vivo, mice
Conditions: for Antibody titres (A410 nm): 12.5 μg BSA i.p. at days 0 and 14, sera diluted by a factor of 400
Procedure: For in vivo studies with archaeosomes (prepared from the TPL, or a lipid obtained in a biologically pure form from the indicated archaeobacterium) and conventional liposomes (prepared from DMPC:DMPG at 1.8:0.2 molar ratio, or DMPC:DMPG:CHOL at 1.8:0.2:1.5 molar ratio, or DMPC:DCP:CHOL at 7:1:2 molar ratio) containing entrapped antigen, the vesicles were prepared by pressure extrusion (at room temperature for archaeobacterial and at 35° C. for DMPC-containing lipids, using 400 nm pore size filters). About 20 mg dry weight of the dried lipid(s) was hydrated in 1 ml PBS containing either BSA (5 mg/ml), Cholera B toxin subunit (0.5 mg/ml), or O-chain polysaccharide (18 mg/ml). To entrap BSA in DSPC:DCP:CHOL (4:1:5, molar ratio), in DSPC:DCP:CHOL:CoQ10 (3:1:4:2, molar ratio), and M. mazei TPL:CoQ10 (8:2, molar ratio), the vesicles were prepared by the REV (at 55° C.)-sonication method described above. The BSA was encapsulated in these vesicles by the DRV method as described by New (13). The antigen that was not entrapped/associated with the vesicles was removed by centrifugation and washing as described for peroxidase-vesicles.
The immunization strategies were similar for each of the different experiments. For each experiment, details of the amounts and types of antigen/adjuvant injected, and the time intervals between injections is described in the appropriate figure legends. Freund's adjuvant (FA) encompasses Freund's complete adjuvant (CFA) and Freund's incomplete adjuvant (IFA) used at 62.5% strength in PBS. For each antigen/adjuvant preparation three mice were injected (unless indicated otherwise) i.p., i.m., or s.c. with antigens encapsulated in archaeosomes or liposomes (diluted in sterile PBS, pH 7.1), antigens emulsified in CFA, or with antigens diluted in PBS alone (final volume, 0.2 ml/mouse). For the second immunization, mice were injected with antigens encapsulated in archaeosomes or liposomes, or emulsified in IFA, or diluted in PBS. For experiments where a third or fourth injection was required, antigens were injected either encapsulated in the respective vesicle type or as bare antigen diluted in PBS. Mice were 6-8 weeks of age at the time of the first immunization.
Mice were bled from the tail veins usually four days after each injection. The blood was allowed to dot, and cells removed from the serum by centrifuging in serum separator tubes.
The humoral response was measured by the indirect enzyme-linked immunosorbent assay (ELISA) using a variety of solid-phase adsorbed antigens. BSA, Cholera B toxin subunit, or E. coli 0:157:H7 lipopolysaccharide was diluted in distilled water (15 μg/ml final concentration) and 100 μl/well was dried (overnight incubation at 37° C.) to coat the ELISA microplate wells. All indirect ELISA assays were performed using standard methods. Dilutions of antibody-containing sera were used as the first antibody and a 1/1500 dilution of HRP-conjugated goat anti-mouse IgG+IgM as the detection antibody.
The isotypes of anti-BSA antibodies raised in mouse sera were assayed by an ELISA method. Wells were coated with BSA (as above). Dilutions of each serum were titred with peroxidase-coupled sheep anti-mouse IgG1, IgG2a, IgG2b, IgG3, and IgM. All ELISA data are reported as the means ± sample standard deviations.

## Bare BSA: bovine serum albumin antigen alone in PBS, without adjuvant or vesicle
Day 25
  Antibody titres (A410 nm): 0.064 ± 0.001 A410 nm
Day 35
  Antibody titres (A410 nm): 0.082 ± 0.007 A410 nm
Day 55
  Antibody titres (A410 nm): 0.075 ± 0.008 A410 nm
i.m., 12.5 μg antigen alone in PBS, sera diluted 400-fold
  Antibody titre (A410 nm): 0.063 ± 0.003 A410 nm
i.p., 12.5 μg BSA, days 0 and 14, blood day 20, IgG + IgM, archaeobacterial lipids none
  Immune response (Relative %): 6.9 ± 0.3 Relative %
i.p., 25 μg antigen alone in PBS, no carrier/adjuvant, sera diluted 400 fold
  Antibody titre (A410 nm): 0.137 ± 0.002 A410 nm
i.p., antigen alone in PBS, undiluted sera
  Anti-BSA antibody Concentration: 10.5 µg/mL
